Experimental data reported in patent US11109593B2, “Isoxazolin-5-one derivative and herbicide containing same as active ingredient” (HOKKO CHEMICAL INDUSTRY CO., LTD., priority 2017, dated 2021).

Assays:
Type in all cases: in vivo
[1] = test system: broad leaf weeds (Lindernia pyxidaria and Monochoria vaginalis); assay: Test Example 1: herbicidal effect test by treatment of rice paddy soil (immediately after seeding); details: 120 g/10a active ingredient, dry weight vs untreated area, 14 days after treatment
Method in brief: (§1)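 Paddy soil in pots with compound fertilizer, puddled; 30 seeds per species sown at 0–1 cm, flooded ~3 cm, greenhouse. Water-diluted emulsions dropped onto water immediately after seeding at 120 g active ingredient per 10 ares, duplicate. Herbicidal rate (%) from plant dry weight versus untreated, 14 days after treatment.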

Scirpus juncoides [2] = assay: as above; details: 120 g/10a active ingredient, dry weight vs untreated area, 14 days after treatment
Method in brief: as §1

Echinochloa crus-galli [3] = assay: as above; details: 120 g/10a active ingredient, dry weight vs untreated area, 14 days after treatment
Method in brief: as §1

[4] = test system: broad leaf weeds (Lindernia pyxidaria and Monochoria vaginalis); assay: Test Example 2: herbicidal effect test by treatment during growing period in paddy rice cultivation (seven days after seeding); details: 120 g/10a active ingredient, assessed 14 days after treatment, dry weight vs untreated area
Method in brief: (§2)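 Sow 30 seeds per species (0–1 cm) into puddled, fertilized paddy soil; keep flooded ~3 cm in greenhouse. Day 7 after seeding: drop water-diluted emulsion, 120 g a.i./10 ares. Harvest 14 d post-treatment; compare dry weight with untreated pots (duplicate).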

Scirpus juncoides [5] = assay: as above; details: 120 g/10a active ingredient, assessed 14 days after treatment, dry weight vs untreated area
Method in brief: as §2

Echinochloa crus-galli [6] = assay: as above; details: 120 g/10a active ingredient, assessed 14 days after treatment, dry weight vs untreated area
Method in brief: as §2

Chenopodium album [7] = assay: Test Example 3: herbicidal effect test by treatment of dry field farming soil (one day after seeding); details: 120 g/10a active ingredient, evaluated 14 days after treatment
Method in brief: (§3)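 Weeds were seeded into the upper soil layer of alluvial field soil and, one day afterwards, the soil surface was sprayed with water-diluted emulsion delivering 120 g active ingredient per 10 ares. Mean plant dry weight relative to untreated pots after 14 days gave the herbicidal rate, tested in duplicate.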

Amaranthus viridis [8] = assay: as above; details: 120 g/10a active ingredient, evaluated 14 days after treatment
Method in brief: as §3

Echinochloa crus-galli [9] = assay: as above; details: 120 g/10a active ingredient, evaluated 14 days after treatment
Method in brief: as §3

southern crabgrass [10] = assay: as above; details: 120 g/10a active ingredient, evaluated 14 days after treatment
Method in brief: as §3

Chenopodium album [11] = assay: Test Example 4: herbicidal effect test by treatment of leave and stem in dry field farming (seven days after seeding); details: 120 g/10a active ingredient; emulsion sprayed seven days after seeding; evaluated 14 days after treatment
Method in brief: (§4)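 Duplicate pots were scored 14 days post-spray by dry weight, herbicidal rate = {1 − treated/untreated average dry weight} × 100. The water-diluted emulsion, equivalent to 120 g active ingredient per 10 ares in 100 L, was applied seven days after sowing 20 seeds each into the upper 1 cm of alluvial soil.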

Amaranthus viridis [12] = assay: as above; details: 120 g/10a active ingredient; emulsion sprayed seven days after seeding; evaluated 14 days after treatment
Method in brief: as §4

Echinochloa crus-galli [13] = assay: as above; details: 120 g/10a active ingredient; emulsion sprayed seven days after seeding; evaluated 14 days after treatment
Method in brief: as §4

southern crabgrass [14] = assay: as above; details: 120 g/10a active ingredient; emulsion sprayed seven days after seeding; evaluated 14 days after treatment
Method in brief: as §4

Row | SMILES | Herbicidal rate (%) Lindernia pyxidaria [1] | Herbicidal rate (%) Monochoria vaginalis [1] | Herbicidal rate (%) Scirpus juncoides (Scirpus juncoides [2]) | Herbicidal rate (%) Echinochloa crus-galli (Echinochloa crus-galli [3]) | Herbicidal rate (%) Lindernia pyxidaria [4] | Herbicidal rate (%) Monochoria vaginalis [4] | Herbicidal rate (%) Scirpus juncoides (Scirpus juncoides [5]) | Herbicidal rate (%) Echinochloa crus-galli (Echinochloa crus-galli [6]) | herbicidal rate, Chenopodium album (Chenopodium album [7]) | herbicidal rate, Amaranthus viridis (Amaranthus viridis [8]) | herbicidal rate, Echinochloa crus-galli (Echinochloa crus-galli [9]) | herbicidal rate, southern crabgrass (southern crabgrass [10]) | herbicidal effect (herbicidal rate), Chenopodium album (Chenopodium album [11]) | herbicidal effect (herbicidal rate), Amaranthus viridis (Amaranthus viridis [12]) | herbicidal effect (herbicidal rate), Echinochloa crus-galli (Echinochloa crus-galli [13]) | herbicidal effect (herbicidal rate), southern crabgrass (southern crabgrass [14])
1 | CCCCC(c1ccccc1)n1oc(=O)c(Cc2ccccc2NS(=O)(=O)C(F)(F)F)c1C (stereo not drawn) [Compound 1-214] | 100% | 90% | 90% | 100% | 70% | 80% | 80% | 90% | 90% | 90% | 80% | 70% | 50% | 40% | 60% | 50%
2 | CCCCCC(c1ccccc1)n1oc(=O)c(Cc2ccccc2NS(=O)(=O)C(F)(F)F)c1C (stereo not drawn) [Compound 1-215] | 100% | 80% | 90% | 100% | 90% | 80% | 90% | 90% | 40% | 40% | 50% | 50% | 40% | 50% | 40% | 50%
3 | Cc1c(Cc2ccccc2NS(=O)(=O)C(F)(F)F)c(=O)on1C(C)Cc1ccccc1 (stereo not drawn) [Compound 1-218] | 90% | 90% | 90% | 100% | 40% | 80% | 90% | 90% | 40% | 40% | 80% | 40% | 40% | 60% | 90% | 40%
4 | Cc1c(Cc2ccccc2NS(=O)(=O)C(F)(F)F)c(=O)on1CC(C)c1ccccc1 (stereo not drawn) [Compound 1-219] | 90% | 80% | 90% | 100% | 40% | 70% | 90% | 90% | 40% | 90% | 90% | 80% | 0% | 40% | 90% | 60%
5 | Cc1c(Cc2ccccc2NS(=O)(=O)C(F)(F)F)c(=O)on1C1CCc2ccccc21 (stereo not drawn) [Compound 1-222] | 90% | 90% | 90% | 100% | 90% | 90% | 90% | 90% | 100% | 100% | 100% | 100% | 50% | 40% | 70% | 80%
6 | Cc1c(Cc2ccccc2NS(=O)(=O)C(F)(F)F)c(=O)on1CC1CCCO1 (stereo not drawn) [Compound 1-230] | 100% | 80% | 90% | 100% | 70% | 90% | 90% | 90% | 60% | 60% | 100% | 100% | 40% | 40% | 80% | 80%
7 | CCN(CC)C(=O)n1oc(=O)c(Cc2ccccc2NS(=O)(=O)C(F)(F)F)c1C [Compound 1-248] | 90% | 80% | 50% | 60% | 90% | 90% | 90% | 40% | 60% | 50% | 70% | 80% | 0% | 40% | 80% | 40%
8 | CC(=O)N(c1ccccc1Cc1c(C)n(C(C)(C)C)oc1=O)S(=O)(=O)C(F)(F)F [Compound 1-293] | 90% | 90% | 90% | 90% | 90% | 90% | 90% | 90% | 90% | 90% | 90% | 90% | 40% | 40% | 90% | 90%
9 | CCC(C)n1oc(=O)c(Cc2ccccc2N(C(C)=O)S(=O)(=O)C(F)(F)F)c1C (stereo not drawn) [Compound 1-294] | 90% | 90% | 90% | 90% | 90% | 90% | 90% | 90% | 90% | 90% | 90% | 90% | 40% | 40% | 90% | 90%
